From patent publication US20170073337A1, “DIHYDROTHIAZINE AND DIHYDROOXAZINE DERIVATIVES HAVING BACE1 INHIBITORY ACTIVITY” (Shionogi & Co., Ltd., priority 2014, published 2017) come the findings set out here.

One data set has as its target T1, CYP2C9 (Homo sapiens, UniProt P11712).
T1 construct: The commercially available pooled human liver microsomes are used as an enzyme resource; from tissue; host or cells: pooled human liver microsomes
The experiment in a line: CYP inhibition test (CYP2C9). It counts as in vitro ADME. Particulars: pooled human liver microsomes; tolbutamide methyl-hydroxylation. The gist of the method:
(§1)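 Metabolite formation was quantified by LC/MS/MS: dextrorphan (2D6, 5 μmol/L dextromethorphan), terfenadine alcohol (3A4, 1 μmol/L terfenadine), 4′-hydroxymephenytoin (2C19, 50 μmol/L S-mephenytoin) and hydroxytolbutamide (2C9, 100 μmol/L tolbutamide). Reactions used NADPH-started pooled human liver microsomes (0.2 mg/mL) at 37 °C with compound at 1–20 μmol/L (four points). IC50 was calculated by logistic model relative to the DMSO control.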
In general terms: Liver microsomes are vesicles of endoplasmic reticulum, rich in cytochrome P450 enzymes.

Another data set addresses T2, CYP2D6 (Homo sapiens, UniProt P10635).
T2 construct: The commercially available pooled human liver microsomes are used as an enzyme resource; from tissue; host or cells: pooled human liver microsomes
The experiment in a line: CYP inhibition test (CYP2D6). It counts as in vitro ADME. The note with it: pooled human liver microsomes; dextromethorphan O-demethylation. Put shortly: as §1

Data set [1] deals with T3, P-gp (MDR1 expressing LLC-PK1 cells) (Homo sapiens, UniProt P08183).
T3 construct: host or cells: LLC-PK1
The experiment in a line: P-gp substrate test. Format: in vitro ADME. The note with it: net flux = Efflux Ratio in MDR1 expressing cells / Efflux Ratio in parent LLC-PK1 cells. On the procedure:
• 1. Cell line: • a. MDR/LLC-PK1 (Becton Dickinson) • b. LLC-PK1 (Becton Dickinson) • 2. Reference substrates: • a Digoxin (2 μM)
1. […] After incubation for designed time at 37° C., an aliquot (50 μL) of transport buffer in the donor and receiver side were collected. Assay was performed by duplicate or triplicate. 3. Reference substrate and the present invention in the aliquot was quantified by LC/MS/MS.
Pc(cm/sec)−Permeated amount (pmol)/area of cell membrane (cm2)/initial concentration (nM)/incubation time (sec)
The efflux ratio was calculated using the following equation:
Efflux Ratio=Basolateral-to-Apical Pe/Apical-to-Basolateral Pe
The net flux was calculated using the following equation
Net flux=Efflux Ratio in MDK1 expressing cells/Efflux Ratio in parent cells

In another data set the target is T4, Recombinant human BACE1 (Homo sapiens, UniProt P56817).
T4 construct: purchased R&D Systems
The experiment in a line: Assay of BACE1 inhibitory activity: 384-well. It counts as biochemical. The note with it: Assay format 384-well. Put shortly:
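Recombinant human BACE1 was incubated 2 h at 25 °C with a biotin/Eu-cryptate-labelled peptide substrate and compound in DMSO. Streptavidin-XL665 in pH 7.0 phosphate buffer containing 0.8 mol/L KF was then added for 30 min at 25 °C for HTRF detection.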

For data set [2], the system named is Aβ production in neuroblastoma SH-SY5Y cells (SH/APPwt). Briefly: β-amyloid (Aβ) production inhibitory effect in cell: 384-well. Format: cell-based. Particulars: Homo sapiens, Assay format 384-well. Put shortly:
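Aβ1-40 secreted by SH/APPwt neuroblastoma cells was quantified by HTRF (overnight, 4 °C, light-protected; emission 620/665 nm). Cells were exposed to compound from seeding for 21 h at 1% final DMSO.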

T1 sequence (P11712 whole entry): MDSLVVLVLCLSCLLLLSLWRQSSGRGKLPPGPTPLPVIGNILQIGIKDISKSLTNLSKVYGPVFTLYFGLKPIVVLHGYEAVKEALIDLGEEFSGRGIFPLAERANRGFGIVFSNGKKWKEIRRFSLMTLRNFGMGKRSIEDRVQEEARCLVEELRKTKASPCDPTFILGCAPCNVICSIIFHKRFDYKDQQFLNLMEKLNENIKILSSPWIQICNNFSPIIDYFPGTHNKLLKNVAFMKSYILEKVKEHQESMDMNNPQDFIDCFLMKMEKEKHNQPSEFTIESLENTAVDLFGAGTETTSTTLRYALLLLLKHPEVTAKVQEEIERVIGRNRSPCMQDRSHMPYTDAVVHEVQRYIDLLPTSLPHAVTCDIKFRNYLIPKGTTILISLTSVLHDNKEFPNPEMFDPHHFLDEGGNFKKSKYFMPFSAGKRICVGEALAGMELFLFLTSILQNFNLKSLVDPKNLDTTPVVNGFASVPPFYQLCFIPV
T2 sequence (P10635 whole entry): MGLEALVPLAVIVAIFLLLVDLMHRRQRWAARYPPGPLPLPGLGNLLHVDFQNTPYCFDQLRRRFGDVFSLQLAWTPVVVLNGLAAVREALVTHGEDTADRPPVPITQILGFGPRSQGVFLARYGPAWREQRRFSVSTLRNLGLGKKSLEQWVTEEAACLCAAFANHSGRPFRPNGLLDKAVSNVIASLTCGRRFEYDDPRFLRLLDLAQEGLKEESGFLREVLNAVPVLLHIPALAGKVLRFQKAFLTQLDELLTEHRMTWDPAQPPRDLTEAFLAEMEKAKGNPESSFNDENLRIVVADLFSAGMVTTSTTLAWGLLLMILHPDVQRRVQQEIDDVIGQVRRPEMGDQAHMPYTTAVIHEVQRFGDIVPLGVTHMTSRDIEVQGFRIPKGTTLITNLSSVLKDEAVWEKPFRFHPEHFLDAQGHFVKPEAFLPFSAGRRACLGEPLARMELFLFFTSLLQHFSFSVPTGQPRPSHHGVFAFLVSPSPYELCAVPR
T4 sequence (P56817 46-501): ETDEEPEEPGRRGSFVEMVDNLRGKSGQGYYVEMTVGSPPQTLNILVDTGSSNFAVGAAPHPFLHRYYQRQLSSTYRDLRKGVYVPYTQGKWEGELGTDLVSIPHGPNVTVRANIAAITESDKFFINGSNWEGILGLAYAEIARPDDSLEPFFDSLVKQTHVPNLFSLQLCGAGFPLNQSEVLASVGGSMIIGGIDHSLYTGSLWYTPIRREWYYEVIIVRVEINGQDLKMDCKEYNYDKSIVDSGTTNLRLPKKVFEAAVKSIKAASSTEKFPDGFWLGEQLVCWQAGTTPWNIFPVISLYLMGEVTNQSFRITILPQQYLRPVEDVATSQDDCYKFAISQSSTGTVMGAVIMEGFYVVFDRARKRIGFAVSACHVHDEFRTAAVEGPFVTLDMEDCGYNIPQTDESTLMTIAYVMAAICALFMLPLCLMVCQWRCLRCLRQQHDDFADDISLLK
T3 sequence (P08183 whole entry): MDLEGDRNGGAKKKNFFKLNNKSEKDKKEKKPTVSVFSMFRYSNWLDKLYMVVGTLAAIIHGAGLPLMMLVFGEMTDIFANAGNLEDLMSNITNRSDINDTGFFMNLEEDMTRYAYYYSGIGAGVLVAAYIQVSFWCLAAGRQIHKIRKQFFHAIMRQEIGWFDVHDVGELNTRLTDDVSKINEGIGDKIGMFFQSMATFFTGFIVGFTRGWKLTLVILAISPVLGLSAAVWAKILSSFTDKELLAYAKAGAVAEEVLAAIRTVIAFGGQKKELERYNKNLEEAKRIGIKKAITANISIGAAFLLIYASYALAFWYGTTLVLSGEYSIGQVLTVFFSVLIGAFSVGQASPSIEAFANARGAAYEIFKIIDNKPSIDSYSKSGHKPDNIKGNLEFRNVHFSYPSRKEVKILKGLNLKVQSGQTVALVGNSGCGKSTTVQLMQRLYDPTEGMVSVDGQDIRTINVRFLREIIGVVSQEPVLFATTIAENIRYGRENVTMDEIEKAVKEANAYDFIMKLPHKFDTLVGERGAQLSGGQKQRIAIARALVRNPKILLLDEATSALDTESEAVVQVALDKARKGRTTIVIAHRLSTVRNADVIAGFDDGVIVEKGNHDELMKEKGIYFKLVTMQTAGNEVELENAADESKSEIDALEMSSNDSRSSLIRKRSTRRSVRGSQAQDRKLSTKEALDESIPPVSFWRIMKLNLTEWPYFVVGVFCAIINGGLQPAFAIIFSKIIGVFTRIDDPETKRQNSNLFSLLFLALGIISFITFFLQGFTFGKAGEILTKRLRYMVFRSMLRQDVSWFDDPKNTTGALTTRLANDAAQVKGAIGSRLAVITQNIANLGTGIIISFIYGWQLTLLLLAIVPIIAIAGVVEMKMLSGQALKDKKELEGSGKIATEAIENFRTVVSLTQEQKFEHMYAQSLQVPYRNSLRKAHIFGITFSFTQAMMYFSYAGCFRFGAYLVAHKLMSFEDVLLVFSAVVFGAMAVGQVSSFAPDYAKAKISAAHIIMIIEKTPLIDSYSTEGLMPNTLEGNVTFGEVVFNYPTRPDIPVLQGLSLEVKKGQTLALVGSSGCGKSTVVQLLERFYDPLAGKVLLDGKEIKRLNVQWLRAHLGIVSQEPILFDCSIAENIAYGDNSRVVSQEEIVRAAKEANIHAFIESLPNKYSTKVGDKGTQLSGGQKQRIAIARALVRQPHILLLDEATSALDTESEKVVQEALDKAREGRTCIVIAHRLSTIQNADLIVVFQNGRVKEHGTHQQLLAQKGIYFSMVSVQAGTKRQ

`C[C@H]1[C@@H](C(F)(F)F)OC(N)=N[C@]1(C)c1cc(NC(=O)c2ccc(C#N)cn2)ccc1F` [Compound I-28]: the IC50 against CYP2C9 and against CYP2D6 was at least 20000 nM throughout. Moreover, the “ER ratio (Cell: MDR1/LLC-PK1)” value in data set [1] is 1.2.
Consider `C[C@H]1[C@@H](C(F)F)OC(N)=N[C@]1(C)c1cc(NC(=O)c2ccc(C#N)cn2)ccc1F` [Compound I-31], for which the half-maximal inhibitory concentration (IC50) against CYP2C9 and at CYP2D6 was at least 20000 nM in each case. The “ER ratio (Cell: MDR1/LLC-PK1)” value in data set [1] is given as 2.9.
For the compound `C[C@]1(c2cc(NC(=O)c3ccc(C#N)cn3)ccc2F)N=C(N)O[C@H]2[C@@H]1OCC2(F)F` [Compound I-35], the half-inhibitory concentration (IC50) against CYP2C9 and at CYP2D6 was at least 20000 nM throughout. Besides, the “ER ratio (Cell: MDR1/LLC-PK1)” value in data set [1] was 2.1.
With `C[C@]1(c2cc(NC(=O)c3cnc(OCF)cn3)ccc2F)N=C(N)OCC12CC(F)(F)C2` [Compound I-44], the IC50 is at least 20000 nM on CYP2C9 and at least 10000 nM on CYP2D6. In data set [1], the “ER ratio (Cell: MDR1/LLC-PK1)” value was determined as 4.6.
`C[C@H]1SC(N)=N[C@](C)(c2cc(NC(=O)c3ncc(C#N)cc3Cl)ccc2F)[C@H]1F` [Compound I-64]: the results for the IC50 (at Recombinant human BACE1; in data set [2]; against CYP2D6) were 7.06 nM, 0.22 nM and at least 20000 nM, respectively. In data set [1], the “ER ratio (Cell: MDR1/LLC-PK1)” value was found to be 3.2.
As to `COc1cnc(C(=O)Nc2ccc(F)c([C@@]3(C)N=C(N)O[C@H](C(F)F)[C@@H]3C)c2)cn1` [Compound I-86], the half-maximal inhibitory concentration (IC50) at Recombinant human BACE1 is 101 nM; in data set [2], 2.21 nM; at CYP2C9 it was at least 20000 nM. The “ER ratio (Cell: MDR1/LLC-PK1)” value in data set [1] is 1.5.
Take `CO[C@H]1[C@@H](C)SC(N)=N[C@]1(C)c1cc(NC(=O)c2cnc(OCF)cn2)ccc1F` [Compound I-87]: the IC50 on Recombinant human BACE1 is 21.4 nM; in data set [2] it was 0.66 nM; at CYP2C9 it was at least 20000 nM; on CYP2D6, at least 20000 nM. The “ER ratio (Cell: MDR1/LLC-PK1)” value in data set [1] is 3.4.
With `COc1cnc(C(=O)Nc2ccc(F)c([C@@]3(C)N=C(N)S[C@H](C)[C@@H]3OC)c2)cn1` [Compound I-90], the 50% inhibitory concentration (IC50) was 15.3 nM on Recombinant human BACE1, 0.51 nM in data set [2], at least 20000 nM against CYP2C9 and at least 20000 nM on CYP2D6. Further, the “ER ratio (Cell: MDR1/LLC-PK1)” value in data set [1] worked out at 3.1.
Take `C[C@]1(c2cc(NC(=O)c3ccc(C#N)cn3)ccc2F)N=C(N)O[C@H](C2(F)CC2)[C@@H]1F` [Compound I-96]: the half-inhibitory concentration (IC50) on Recombinant human BACE1 was 21.2 nM; in data set [2], 1.8 nM; at CYP2C9, at least 10000 nM; on CYP2D6, at least 20000 nM. The “ER ratio (Cell: MDR1/LLC-PK1)” value in data set [1] was 2.0.
In the case of `COc1cnc(C(=O)Nc2cccc([C@@]3(C)N=C(N)S[C@H](C)[C@@H]3F)c2)cn1` [Compound I-103], the half-inhibitory concentration (IC50) is 17.3 nM at Recombinant human BACE1, 2.1 nM in data set [2], at least 10000 nM on CYP2C9 and at least 20000 nM against CYP2D6. In data set [1], the “ER ratio (Cell: MDR1/LLC-PK1)” value worked out at 1.4.
For the compound `C[C@H]1SC(N)=N[C@](C)(c2cccc(NC(=O)c3cnc(OCF)cn3)c2)[C@H]1F` [Compound I-104], the IC50 on Recombinant human BACE1 is 10.8 nM; in data set [2], 0.49 nM; against CYP2C9, at least 10000 nM; at CYP2D6 it was at least 20000 nM. In addition, the “ER ratio (Cell: MDR1/LLC-PK1)” value in data set [1] came out at 1.4.
For `C[C@H]1SC(N)=N[C@](C)(c2cccc(NC(=O)c3cnc(C(F)F)cn3)c2)[C@H]1F` [Compound I-106], the half-maximal inhibitory concentration (IC50) on Recombinant human BACE1 is 19.4 nM; in data set [2], 2.6 nM; on CYP2C9 it was at least 20000 nM; on CYP2D6, at least 20000 nM. In data set [1], the “ER ratio (Cell: MDR1/LLC-PK1)” value worked out at 1.9.
`COc1ccc(C(=O)Nc2ccc(F)c([C@@]3(C)N=C(N)S[C@H](C)[C@@H]3F)c2)nn1` [Compound I-108]: the IC50 was 136 nM at Recombinant human BACE1, 8.8 nM in data set [2] and at least 10000 nM against CYP2D6. The “ER ratio (Cell: MDR1/LLC-PK1)” value in data set [1] is recorded as 1.4.

As a reminder, the IC50 is the midpoint of a concentration-inhibition curve.
